From patent US11091478B2 (Fochon Pharmaceuticals, Ltd., priority 2017, dated 2021) come the findings set out here.

pIC50: −log10 of the molar value.

As a reminder, the pIC50 is the IC50 on a negative log10 scale, so that one unit is a factor of ten. A lower pIC50 goes with a large IC50.

Experiment [1] concerns DOHH2 cells. As to the kind of experiment: Cell proliferation assay (MTS), DOHH2 cells, 120 h. In kind it is cell-based. The settings on record: Homo sapiens, DOHH-2, 120 h. A digest of the protocol: (§1)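 Treatment lasts 72 h for RS4;11 and 120 h for DOHH2 cells seeded at 5000 per well in serum-containing RPMI-1640. A 2 h MTS step, halted with 10% SDS, precedes dual-wavelength absorbance reading and IC50 fitting.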

Experiment [2] has as its system RS4;11 cells. As to the kind of experiment: Cell proliferation assay (MTS), RS4;11 cells, 72 h. In kind it is cell-based. Conditions: Homo sapiens, RS4-11, 72 h. The gist of the method: as §1

On to `CC1(C)CCC(CN2CCN(c3ccc(C(=O)NS(=O)(=O)c4cc5c(c([N+](=O)[O-])c4)N[C@@H](CCN=S4(=O)CCOCC4)CO5)c(Oc4cnc5[nH]ccc5c4)c3)CC2)=C(c2ccc(Cl)cc2)C1` [Example 2-78, (S)-2-((1H-pyrrolo[2,3-b]pyridin-5-yl)oxy)-4-(4-((4′-chloro-5,5-dimethyl-3,4,5,6-tetra-hydro-[1,1′-biphenyl]-2-yl)methyl)piperazin-1-yl)-N-((5-nitro-3-(2-((4-oxido-1,4λ^6-ox-athian-4-ylidene)amino)ethyl)-3,4-dihydro-2H-benzo[b][1,4]oxazin-7-yl)sulfonyl)ben-zamide], for which the pIC50 in experiment [1] was 7.82; in experiment [2] it was 8.22.

For the compound `C[C@H]1CN(C[C@@H]2COc3cc(S(=O)(=O)NC(=O)c4ccc(N5CCN(CC6=C(c7ccc(Cl)cc7)CC(C)(C)CC6)CC5)cc4Oc4cnc5[nH]ccc5c4)cc([N+](=O)[O-])c3N2)CCO1` [Example 2-79, 2-((1H-pyrrolo[2,3-b]pyridin-5-yl)oxy)-4-(4-((4′-chloro-5,5-dimethyl-3,4,5,6-tetrahydro-[1,1′-biphenyl]-2-yl)methyl)piperazin-1-yl)-N-(((R)-3-(((S)-2-methylmorpholino)methyl)-5-nitro-3,4-dihydro-2H-benzo[b][1,4]oxazin-7-yl)sulfonyl)benzamide], the pIC50 in experiment [1] was 7.26; in experiment [2], 8.15.

Consider `C[C@H]1COCCN1C[C@@H]1COc2cc(S(=O)(=O)NC(=O)c3ccc(N4CCN(CC5=C(c6ccc(Cl)cc6)CC(C)(C)CC5)CC4)cc3Oc3cnc4[nH]ccc4c3)cc([N+](=O)[O-])c2N1` [Example 2-80, 2-((1H-pyrrolo[2,3-b]pyridin-5-yl)oxy)-4-(4-((4′-chloro-5,5-dimethyl-3,4,5,6-tetrahydro-[1,1′-biphenyl]-2-yl)methyl)piperazin-1-yl)-N-(((R)-3-(((S)-3-methylmorpholino)meth-yl)-5-nitro-3,4-dihydro-2H-benzo[b][1,4]oxazin-7-yl)sulfonyl)benzamide], for which the figures for the pIC50 in experiment [1] and in experiment [2] were 7.31 and 8.15, respectively.

Regarding `C[C@@H]1COCCN1C[C@@H]1COc2cc(S(=O)(=O)NC(=O)c3ccc(N4CCN(CC5=C(c6ccc(Cl)cc6)CC(C)(C)CC5)CC4)cc3Oc3cnc4[nH]ccc4c3)cc([N+](=O)[O-])c2N1` [Example 2-81, 2-((1H-pyrrolo[2,3-b]pyridin-5-yl)oxy)-4-(4-((4′-chloro-5,5-dimethyl-3,4,5,6-tetra-hydro-[1,1′-biphenyl]-2-yl)methyl)piperazin-1-yl)-N-(((R)-3-(((R)-3-methylmorpholino)meth-yl)-5-nitro-3,4-dihydro-2H-benzo[b][1,4]oxazin-7-yl)sulfonyl)benzamide], the values for the pIC50 in experiment [1] and in experiment [2] were 7.85 and 8.52, respectively.

In the case of `CC1(C)CCC(CN2CCN(c3ccc(C(=O)NS(=O)(=O)c4cc5c(c([N+](=O)[O-])c4)N[C@H](CN4C[C@@H]6C[C@H]4CO6)CO5)c(Oc4cnc5[nH]ccc5c4)c3)CC2)=C(c2ccc(Cl)cc2)C1` [Example 2-82, 2-((1H-pyrrolo[2,3-b]pyridin-5-yl)oxy)-N-(((R)-3-(((1S,4S)-2-oxa-5-azabicyclo[2.2.1]heptan-5-yl)methyl)-5-nitro-3,4-dihydro-2H-benzo[b][1,4]oxazin-7-yl)sulfonyl)-4-(4-((4′-chloro-5,5-dimethyl-3,4,5,6-tetrahydro-[1,1′-biphenyl]-2-yl)methyl)piperazin-1-yl) benzamide], the values for the pIC50 in experiment [1] and in experiment [2] were 8.05 and 9.00, respectively.

With `CC1(C)CCC(CN2CCN(c3ccc(C(=O)NS(=O)(=O)c4cc5c(c([N+](=O)[O-])c4)N[C@H](CN4C[C@H]6C[C@@H]4CO6)CO5)c(Oc4cnc5[nH]ccc5c4)c3)CC2)=C(c2ccc(Cl)cc2)C1` [Example 2-83, 2-((1H-pyrrolo[2,3-b]pyridin-5-yl)oxy)-N-(((R)-3-(((1R,4R)-2-oxa-5-azabicyclo[2.2.1]heptan-5-yl)methyl)-5-nitro-3,4-dihydro-2H-benzo[b][1,4]oxazin-7-yl)sulfonyl)-4-(4-((4′-chloro-5,5-dimethyl-3,4,5,6-tetrahydro-[1,1′-biphenyl]-2-yl)methyl)piperazin-1-yl) benzamide], the pIC50 in experiment [1] is 7.89; in experiment [2], 9.00.
